Assays:
[1] = tested on: Colletotrichum lindemuthianum; test: Colletotrichum lindemuthianum in vitro cell test; assay type: cell-based; conditions: 144 h, 20 ppm of active ingredient, liquid culture, 6 days incubation, read-out: efficacy (inhibition of fungal growth)
[2] = tested on: Colletotrichum lindemuthianum; test: In vivo preventive test on Colletotrichum lindemuthianum (leaf spot on bean); conditions: 168 h, 500 ppm of active ingredient, preventive spray on bean, evaluated 7 days after inoculation, read-out: efficacy
Botrytis cinerea = test: In vivo preventive test on Botrytis cinerea (grey mould); conditions: 500 ppm of active ingredient, preventive spray on gherkin or cabbage, evaluated 4 to 5 days after inoculation, read-out: efficacy
Sphaerotheca fuliginea = test: In vivo preventive test on Sphaerotheca fuliginea (powdery mildew on cucurbits); conditions: Podosphaera fuliginea, 192 h; 500 ppm of active ingredient; preventive spray on gherkin; evaluated 8 days after inoculation; read-out: efficacy
[3] = Measurement of LogP values by HPLC on reversed phase columns (EEC directive 79/831 Annex V.A8), methods [a], [b], [c]; assay type: physicochemical; conditions: HPLC on reversed phase column, method [a]; read-out: Log P
Method in brief: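 Log P determined by reversed-phase HPLC following EEC directive 79/831 Annex V.A8. Multiple values within one method are listed joined by "+". Lambda-max taken from UV spectra over 200–400 nm at chromatographic peak maxima.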

Septoria tritici = test: In vivo preventive test on Septoria tritici (leaf spot on wheat); conditions: Zymoseptoria tritici, in Triticum aestivum; 500 ppm of active ingredient; preventive spray on wheat; evaluated 19 days after inoculation; read-out: efficacy
Experimental: Example: In Vivo Preventive Test on Septoria tritici (Leaf Spot on Wheat)
• Solvent: 5% by volume of Dimethyl sulfoxide • 10% by volume of Acetone • Emulsifier: 1 μl of Tween® 80 per mg of active ingredient
The active ingredients were made soluble and homogenized in a mixture of Dimethyl sulfoxide/Acetone//Tween®80 and then diluted in water to the desired concentration.
The young plants of wheat were treated by spraying the active ingredient prepared as described above. Control plants were treated only with an aqueous solution of Acetone/Dimethyl sulfoxide/Tween®80.
After 24 hours, the plants were contaminated by spraying the leaves with an aqueous suspension of Septoria tritici spores. The contaminated wheat plants were incubated for 72 hours at 17° C. and at 100% relative humidity and then for 15 days at 20° C. and at 90% relative humidity.
The test was evaluated 19 days after the inoculation. 0% means an efficacy which corresponds to that of the control plants while an efficacy of 100% means that no disease was observed.

Pyrenophora teres = test: In vivo preventive test on Pyrenophora teres (net blotch on barley); conditions: 240 h, 500 ppm of active ingredient, preventive spray on barley, evaluated 10 days after inoculation, read-out: efficacy
Alternaria brassicae = test: In vivo preventive test on Alternaria brassicae (leaf spot on radish or cabbage); conditions: 144 h, 500 ppm of active ingredient, preventive spray on radish or cabbage, evaluated 6 days after inoculation, read-out: efficacy

Row | Compound | inhibition at 20 ppm [1] | pest or weed control at 500 ppm [2] | pest or weed control at 500 ppm (Botrytis cinerea) | pest or weed control at 500 ppm (Sphaerotheca fuliginea) | chromatographic logP [3] | pest or weed control at 500 ppm (Septoria tritici) | pest or weed control at 500 ppm (Pyrenophora teres) | pest or weed control at 500 ppm (Alternaria brassicae)
1 | COCCOc1c(Cl)nnc(Oc2cccc(C(F)(F)F)c2)c1C1=NOCC(Cc2ccc(C)cc2C)N1 (racemic) [I-072, rac-3-[6-chloro-5-(2-methoxyethoxy)-3-[3-(trifluoro-methyl)phenoxy]pyridazin-4-yl]-5-[(2,4-dimethylphenyl)methyl]-5,6-dihydro-4H-1,2,4-oxadiazine] | 90 to 100% | 90 to 100% | 90 to 100% | 90 to 100% | 4.18 | 90 to 100% | 80 to 89% | 90 to 100%
2 | C=C(OCC)c1cc(C2=NOCC(Cc3ccc(C)cc3C)N2)c(Oc2cccc(C(F)(F)F)c2)nn1 (racemic) [I-009, rac-5-[(2,4-dimethylphenyl)methyl]-3-[6-(1-ethoxyvinyl)-3-[3-(trifluoro-methyl)phenoxy]pyridazin-4-yl]-5,6-dihydro-4H-1,2,4-oxadiazine] | 90 to 100% | 90 to 100% | 90 to 100% | 90 to 100% | 4.98 | 90 to 100% | 90 to 100% | 90 to 100%
3 | COc1cccc(Oc2nnc(Cl)cc2C2=NOCC(Cc3ccc(C)cc3C)N2)c1F (racemic) [I-005, rac-3-[6-chloro-3-(2-fluoro-3-methoxy-phenoxy)pyridazin-4-yl]-5-[(2,4-dimethylphenyl)methyl]-5,6-dihydro-4H-1,2,4-oxadiazine] | 90 to 100% | 90 to 100% | 90 to 100% | 90 to 100% | 3.91 | 90 to 100% | 90 to 100% | 90 to 100%
4 | FC(F)(F)c1cccc(Oc2nnc(Cl)cc2C2=NOCC(Cc3ccc(Br)cc3Cl)N2)c1 (racemic) [I-016, rac-5-[(4-bromo-2-chloro-phenyl)methyl]-3-[6-chloro-3-[3-(trifluoromethyl)phenoxy]pyridazin-4-yl]-5,6-dihydro-4H-1,2,4-oxadiazine] | 90 to 100% | 90 to 100% | 90 to 100% | 90 to 100% | 4.61 | 90 to 100% | 90 to 100% | 90 to 100%

Reference: patent US12501900B2, “Heterocyclyl pyridazine as fungicidal compounds” (Bayer Aktiengesellschaft, priority 2018, dated 2025)
